Blank lines part the entries; values can stand above or below the compound they belong to.
Legend:
RON (human) = RON (human) (Homo sapiens, UniProt Q04912); test: RON (human) AlphaScreen kinase assay, Km of ATP; format: biochemical; settings: AlphaScreen, Km of ATP; read-out: RON biochemical IC50
Outline: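 Detection used PT66 AlphaScreen beads added in Tris pH 7.5/NaCl/EDTA/BSA buffer, read after 1 h incubation. Vehicle-only DMSO wells served as controls.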

MET (human) = MET (human) (Homo sapiens, UniProt P08581); test: MET (human) AlphaScreen kinase assay, Km of ATP; format: biochemical; settings: AlphaScreen, Km of ATP; read-out: Met biochemical IC50
Sequence of MET (human) (P08581 25-1390): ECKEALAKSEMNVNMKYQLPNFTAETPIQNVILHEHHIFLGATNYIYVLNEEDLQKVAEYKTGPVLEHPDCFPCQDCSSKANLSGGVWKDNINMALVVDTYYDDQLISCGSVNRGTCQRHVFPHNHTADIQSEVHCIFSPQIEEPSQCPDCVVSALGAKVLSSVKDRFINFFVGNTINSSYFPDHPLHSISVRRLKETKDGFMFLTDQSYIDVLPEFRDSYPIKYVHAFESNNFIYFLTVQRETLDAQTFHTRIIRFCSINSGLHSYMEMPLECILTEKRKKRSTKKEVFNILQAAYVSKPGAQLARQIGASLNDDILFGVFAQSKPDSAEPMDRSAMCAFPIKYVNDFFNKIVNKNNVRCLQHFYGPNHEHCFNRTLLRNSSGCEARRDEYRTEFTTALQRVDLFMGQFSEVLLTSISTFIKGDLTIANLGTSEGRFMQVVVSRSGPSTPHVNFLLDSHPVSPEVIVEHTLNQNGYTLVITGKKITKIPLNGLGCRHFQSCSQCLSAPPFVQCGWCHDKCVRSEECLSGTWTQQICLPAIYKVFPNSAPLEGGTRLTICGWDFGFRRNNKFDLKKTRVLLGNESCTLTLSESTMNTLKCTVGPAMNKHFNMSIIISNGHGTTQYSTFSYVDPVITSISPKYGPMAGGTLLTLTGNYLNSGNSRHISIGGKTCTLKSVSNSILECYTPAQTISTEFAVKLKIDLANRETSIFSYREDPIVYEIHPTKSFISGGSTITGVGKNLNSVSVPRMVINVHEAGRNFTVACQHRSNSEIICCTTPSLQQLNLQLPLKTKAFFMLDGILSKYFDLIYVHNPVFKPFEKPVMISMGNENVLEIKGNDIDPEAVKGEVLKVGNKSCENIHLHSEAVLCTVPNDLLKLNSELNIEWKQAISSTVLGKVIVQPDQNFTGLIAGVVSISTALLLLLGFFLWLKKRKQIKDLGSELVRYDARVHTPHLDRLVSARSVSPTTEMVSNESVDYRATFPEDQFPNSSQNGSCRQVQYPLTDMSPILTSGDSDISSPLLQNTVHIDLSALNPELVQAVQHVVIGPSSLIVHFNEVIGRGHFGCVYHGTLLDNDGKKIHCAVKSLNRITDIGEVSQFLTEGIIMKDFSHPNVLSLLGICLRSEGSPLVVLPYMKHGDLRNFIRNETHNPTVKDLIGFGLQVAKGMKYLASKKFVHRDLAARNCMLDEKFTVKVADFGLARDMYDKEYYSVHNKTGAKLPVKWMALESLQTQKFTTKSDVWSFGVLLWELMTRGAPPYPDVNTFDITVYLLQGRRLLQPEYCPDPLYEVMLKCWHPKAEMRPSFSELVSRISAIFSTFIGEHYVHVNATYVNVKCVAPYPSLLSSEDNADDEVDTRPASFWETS
Outline: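 Human MET at lot-optimised concentration in 50 mM Tris pH 7.4 buffer with 1 mM DTT, compound at 1% DMSO final; enzyme starts the reaction, 60 min at RT.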

Sequence of RON (human) (Q04912 25-1400): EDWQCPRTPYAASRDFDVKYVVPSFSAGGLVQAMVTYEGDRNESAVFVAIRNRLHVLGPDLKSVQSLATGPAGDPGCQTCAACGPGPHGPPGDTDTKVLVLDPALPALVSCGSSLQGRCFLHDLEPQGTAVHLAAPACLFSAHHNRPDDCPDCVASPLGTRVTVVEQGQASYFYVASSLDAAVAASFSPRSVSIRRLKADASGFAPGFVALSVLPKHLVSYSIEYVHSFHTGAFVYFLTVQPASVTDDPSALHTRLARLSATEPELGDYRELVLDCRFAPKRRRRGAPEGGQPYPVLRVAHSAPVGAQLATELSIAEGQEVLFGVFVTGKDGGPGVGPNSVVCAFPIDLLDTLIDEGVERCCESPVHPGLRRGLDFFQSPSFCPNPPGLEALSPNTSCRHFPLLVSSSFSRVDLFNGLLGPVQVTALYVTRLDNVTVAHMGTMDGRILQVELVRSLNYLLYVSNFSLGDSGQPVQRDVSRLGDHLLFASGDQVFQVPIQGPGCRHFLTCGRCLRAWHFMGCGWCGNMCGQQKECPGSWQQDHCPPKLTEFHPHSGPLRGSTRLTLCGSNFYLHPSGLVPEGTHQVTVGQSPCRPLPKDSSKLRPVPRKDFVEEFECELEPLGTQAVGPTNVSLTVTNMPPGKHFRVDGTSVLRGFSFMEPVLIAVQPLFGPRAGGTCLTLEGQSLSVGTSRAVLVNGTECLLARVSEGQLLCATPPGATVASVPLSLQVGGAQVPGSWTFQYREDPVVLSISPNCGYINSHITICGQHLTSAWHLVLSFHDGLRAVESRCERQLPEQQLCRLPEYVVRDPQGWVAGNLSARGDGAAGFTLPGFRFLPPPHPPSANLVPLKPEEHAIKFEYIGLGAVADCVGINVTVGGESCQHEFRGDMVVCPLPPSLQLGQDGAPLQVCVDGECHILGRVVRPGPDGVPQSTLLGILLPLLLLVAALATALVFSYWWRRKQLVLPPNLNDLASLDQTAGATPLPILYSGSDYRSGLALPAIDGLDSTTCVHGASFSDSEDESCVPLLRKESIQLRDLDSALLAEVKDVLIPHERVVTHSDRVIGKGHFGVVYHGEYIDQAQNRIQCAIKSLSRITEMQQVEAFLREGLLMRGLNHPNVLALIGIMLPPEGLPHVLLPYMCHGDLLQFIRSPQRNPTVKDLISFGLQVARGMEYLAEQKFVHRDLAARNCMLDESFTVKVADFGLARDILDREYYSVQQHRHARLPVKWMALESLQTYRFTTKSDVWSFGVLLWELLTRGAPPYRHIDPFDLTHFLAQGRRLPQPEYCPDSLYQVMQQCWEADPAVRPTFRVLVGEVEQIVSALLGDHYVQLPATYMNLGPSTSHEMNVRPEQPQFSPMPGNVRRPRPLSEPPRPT

IC50 (RON (human)): 0.5 to 5 µM | IC50 (MET (human)): 0.5 to 5 µM
SMILES: COc1cc(OC)cc(-c2coc3c(O[C@H](C)c4c(Cl)ccc(F)c4Cl)c(N)ncc23)c1 [Example 81, 7-[(R)-1-(2,6-Dichloro-3-fluorophenyl)ethoxy]-3-(3,5-dimethoxyphenyl)furo[3,2-c]pyridin-6-ylamine]

IC50 (RON (human)): 0.5 to 5 µM | IC50 (MET (human)): < 0.5 µM
SMILES: C[C@@H](Oc1c(N)ncc2c(-c3cccc(CN(C)C)c3)coc12)c1c(Cl)ccc(F)c1Cl [Example 96, 7-[(R)-1-(2,6-Dichloro-3-fluorophenyl)ethoxy]-3-(3-dimethyl-aminomethylphenyl)furo[3,2-c]pyridin-6-ylamine]

IC50 (RON (human)): 0.5 to 5 µM | IC50 (MET (human)): 0.5 to 5 µM
SMILES: CNC(=O)c1ccc(-c2coc3c(O[C@H](C)c4c(Cl)ccc(F)c4Cl)c(N)ncc23)cc1 [Example 289, 4-{6-Amino-7-[(R)-1-(2,6-dichloro-3-fluorophenyl)ethoxy]furo[3,2-c]pyridin-3-yl}-N-methylbenzamide]

IC50 (RON (human)): 0.5 to 5 µM | IC50 (MET (human)): 0.5 to 5 µM
SMILES: CCS(=O)(=O)N1CC=C(c2coc3c(O[C@H](C)c4c(Cl)ccc(F)c4Cl)c(N)ncc23)CC1 [Example 47, 7-[(R)-1-(2,6-Dichloro-3-fluorophenyl)-ethoxy]-3-(1-ethanesulfonyl-1,2,3,6-tetrahydropyridin-4-yl)-furo[3,2-c]pyridin-6-ylamine]

IC50 (RON (human)): 5 to 20 µM | IC50 (MET (human)): 0.5 to 5 µM
SMILES: C[C@@H](Oc1c(N)ncc2c(-c3cccc(NS(=O)(=O)c4ccccc4)c3)coc12)c1c(Cl)ccc(F)c1Cl [Example 243, N-(3-{6-Amino-7-[(R)-1-(2,6-dichloro-3-fluorophenyl)ethoxy]-furo[3,2-c]pyridin-3-yl}phenyl)benzenesulfonamide]

IC50 (RON (human)): 0.5 to 5 µM | IC50 (MET (human)): < 0.5 µM
SMILES: C[C@@H](Oc1c(N)ncc2c(C3=CCN(C(=O)[C@H](N)Cc4ccccc4)CC3)coc12)c1c(Cl)ccc(F)c1Cl [Example 257, (2R)-2-Amino-1-[4-{6-amino-7-[(1R)-1-(2,6-dichloro-3-fluoro-phenyl)ethoxy]furo[3,2-c]pyridin-3-yl}-3,6-dihydropyridin-1(2H)-yl]-3-phenylpropan-1-one]

IC50 (RON (human)): < 0.5 µM | IC50 (MET (human)): < 0.5 µM
SMILES: C[C@@H](Oc1c(N)ncc2c(-c3ccc(N4CCNCC4)nc3)coc12)c1c(Cl)ccc(F)c1Cl [Example 130, 7-[(R)-(2,6-Dichloro-3-fluorophenyl)ethoxy]-3-(6-piperazin-1-yl-pyridin-3-yl)furo[3,2-c]pyridin-6-ylamine]

IC50 (RON (human)): 0.5 to 5 µM | IC50 (MET (human)): < 0.5 µM
SMILES: CCN1CCC(n2cc(-c3coc4c(O[C@H](C)c5c(Cl)ccc(F)c5Cl)c(N)ncc34)cn2)CC1 [Example 278, 7-[(1R)-1-(2,6-Dichloro-3-fluorophenyl)ethoxy]-3-[1-(1-ethylpiperidin-4-yl)-1H-pyrazol-4-yl]furo[3,2-c]pyridin-6-amine]

IC50 (RON (human)): 0.5 to 5 µM | IC50 (MET (human)): < 0.5 µM
SMILES: C[C@@H](Oc1c(N)ncc2c(-c3ccc(C(=O)NCCN4CCCCC4)cc3)coc12)c1c(Cl)ccc(F)c1Cl [Example 103, 4-{6-Amino-7-[(R)-1-(2,6-dichloro-3-fluorophenyl)ethoxy]furo[3,2-c]pyridin-3-yl}-N-(2-piperidin-1-ylethyl)benzamide]

IC50 (RON (human)): 0.5 to 5 µM | IC50 (MET (human)): 0.5 to 5 µM
SMILES: C[C@@H](Oc1c(N)ncc2c(-c3ccc(C(=O)N4CCN(CC(=O)N(C)C)CC4)cc3)coc12)c1c(Cl)ccc(F)c1Cl [Example 300, 2-[4-(4-{6-Amino-7-[(R)-1-(2,6-dichloro-3-fluorophenyl)ethoxy]furo[3,2-c]pyridin-3-yl}benzoyl)piperazin-1-yl]-N,N-dimethylacetamide]

IC50 (RON (human)): 0.5 to 5 µM | IC50 (MET (human)): 0.5 to 5 µM
SMILES: CC(=O)c1ccc(-c2coc3c(O[C@H](C)c4c(Cl)ccc(F)c4Cl)c(N)ncc23)s1 [Example 114, 1-(5-{6-Amino-7-[(R)-1-(2,6-dichloro-3-fluorophenyl)ethoxy]furo[3,2-c]pyridin-3-yl}thiophen-2-yl)ethanone]

IC50 (RON (human)): 0.5 to 5 µM | IC50 (MET (human)): < 0.5 µM
SMILES: C[C@@H](Oc1c(N)ncc2c(C3=CCN(S(C)(=O)=O)CC3)coc12)c1c(Cl)ccc(F)c1Cl [Example 46, 7-[(R)-1-(2,6-Dichloro-3-fluorophenyl)-ethoxy]-3-(1-methanesulfonyl-1,2,3,6-tetrahydropyridin-4-yl)-furo[3,2-c]pyridin-6-ylamine]

Second part, the compound before the results:

SMILES: COC(=O)c1cccc(C(C)Oc2c(N)ncc3c(-c4cnn(C5CCNCC5)c4)coc23)c1 (stereo not drawn) [Example 410, 3-{1-[6-Amino-3-(1-piperidin-4-yl-1H-pyrazol-4-yl)furo[3,2-c]pyridin-7-yloxy]ethyl}benzoic acid methyl ester]
IC50 (RON (human)): 0.5 to 5 µM | IC50 (MET (human)): 0.5 to 5 µM

SMILES: CC(Oc1c(N)ncc2c(-c3cnn(C4CCNCC4)c3)coc12)c1c(Cl)cccc1C(F)(F)F (stereo not drawn) [Example 365, 7-[1-(2-Chloro-6-trifluoromethylphenyl)ethoxy]-3-(1-piperidin-4-yl-1H-pyrazol-4-yl)furo[3,2-c]pyridin-6-ylamine]
IC50 (RON (human)): 0.5 to 5 µM | IC50 (MET (human)): < 0.5 µM

SMILES: C[C@@H](Oc1c(N)ncc2c(-c3cnn(C4CCNCC4)c3)coc12)c1cccc(F)c1 [Example 337, 7-[(R)-1-(3-fluorophenyl)ethoxy]-3-(1-piperidin-4-yl-1H-pyrazol-4-yl)-furo[3,2-c]pyridin-6-ylamine]
IC50 (RON (human)): 0.5 to 5 µM | IC50 (MET (human)): < 0.5 µM

SMILES: Nc1ncc2c(-c3cnn(C4CCNCC4)c3)coc2c1O[C@H](c1ccccc1)C(F)(F)F [Example 392, 3-(1-Piperidin-4-yl-1H-pyrazol-4-yl)-7-((R)-2,2,2-trifluoro-1-phenylethoxy)furo[3,2-c]pyridin-6-ylamine]
IC50 (RON (human)): 0.5 to 5 µM | IC50 (MET (human)): < 0.5 µM

SMILES: CC(Cc1ccc(Cl)cc1)Oc1c(N)ncc2c(-c3cnn(C4CCNCC4)c3)coc12 (stereo not drawn) [Example 370, 7-[2-(4-Chlorophenyl)-1-methylethoxy]-3-(1-piperidin-4-yl-1H-pyrazol-4-yl)furo[3,2-c]pyridin-6-ylamine]
IC50 (RON (human)): 0.5 to 5 µM | IC50 (MET (human)): < 0.5 µM

SMILES: CC(Oc1c(N)ncc2c(-c3cnn(C4CCNCC4)c3)coc12)c1cc(F)cc(-c2cn[nH]c2)c1 (stereo not drawn) [Example 451, 7-{1-[3-Fluoro-5-(1H-pyrazol-4-yl)phenyl]ethoxy}-3-(1-piperidin-4-yl-1H-pyrazol-4-yl)furo[3,2-c]pyridin-6-ylamine]
IC50 (RON (human)): 0.5 to 5 µM | IC50 (MET (human)): < 0.5 µM

SMILES: CC(Oc1c(N)ncc2c(-c3cnn(C4CCNCC4)c3)coc12)c1c(Cl)cccc1Br (stereo not drawn) [Example 361, 7-[1-(2-Bromo-6-chlorophenyl)ethoxy]-3-(1-piperidin-4-yl-1H-pyrazol-4-yl)furo[3,2-c]pyridin-6-ylamine]
IC50 (RON (human)): < 0.5 µM | IC50 (MET (human)): < 0.5 µM

SMILES: CC(Cc1ccccc1C(F)(F)F)Oc1c(N)ncc2c(-c3cnn(C4CCNCC4)c3)coc12 (stereo not drawn) [Example 435, 7-[1-Methyl-2-(2-trifluoromethylphenyl)ethoxy]-3-(1-piperidin-4-yl-1H-pyrazol-4-yl)furo[3,2-c]pyridin-6-ylamine]
IC50 (RON (human)): 0.5 to 5 µM | IC50 (MET (human)): < 0.5 µM

SMILES: C[C@@H](Oc1c(N)ncc2c(C3=CCN(CC#N)CC3)coc12)c1c(Cl)ccc(F)c1Cl [Example 321, (4-{6-Amino-7-[(R)-1-(2,6-dichloro-3-fluorophenyl)ethoxy]furo[3,2-c]pyridin-3-yl}-3,6-dihydro-2H-pyridin-1-yl)acetonitrile]
IC50 (RON (human)): 0.5 to 5 µM | IC50 (MET (human)): < 0.5 µM

From patent US8022206B2 (OSI Pharmaceuticals, LLC, priority 2008, dated 2011)
